No end group written: not given here.
How the values were obtained:
[1] = test system: MDRAB clinical strain AK61; assay type: cell-based, Acinetobacter baumannii; details: strain AK61, 24 h 37 °C
Protocol: (§1) MBC were determined by extending the MIC procedure in sterilized 96-well polypropylene microtiter plates according to the broth microdilution guidelines of the Clinical and Laboratory Standards Institute with some modification[47]. […] In addition, 10 µL was drawn from each well with no visible turbidity onto LB agar plates and incubated for 24 h at 37 °C. The lowest concentration showing no visible growth on agar subculture was used as the MBC value. All experiments were performed in triplicate.

[2] = test system: MDRAB clinical strain AG51; assay type: cell-based, Acinetobacter baumannii; details: strain AG51, 24 h 37 °C
[3] = test system: MDRAB clinical strain AL87; assay type: cell-based, Acinetobacter baumannii; details: strain AL87, 24 h 37 °C
Protocol: as §1

[4] = test system: MDRAB clinical strain AN10; assay type: cell-based, Acinetobacter baumannii; details: strain AN10, 24 h 37 °C
Protocol: as §1

[5] = test system: MDRAB clinical strain AE6; assay type: cell-based, Acinetobacter baumannii; details: strain AE6, 24 h 37 °C
[6] = test system: MDRAB clinical strain AF11; assay type: cell-based, Acinetobacter baumannii; details: strain AF11, 24 h 37 °C
[7] = test system: MDRAB clinical strain U80; assay type: cell-based, Acinetobacter baumannii; details: strain U80, 24 h 37 °C
[8] = test system: MDRAB clinical strain AK29; assay type: cell-based, Acinetobacter baumannii; details: strain AK29, 24 h 37 °C
Protocol: as §1

[9] = test system: MDRAB clinical strain AF93; assay type: cell-based, Acinetobacter baumannii; details: strain AF93, 24 h 37 °C
[10] = test system: MDRAB clinical strain L87; assay type: cell-based, Acinetobacter baumannii; details: strain L87, 24 h 37 °C
Protocol: as §1

[11] = test system: MDRAB clinical strain AS40; assay type: cell-based, Acinetobacter baumannii; details: strain AS40, 24 h 37 °C
[12] = test system: MDRAB clinical strain AE5; assay type: cell-based, Acinetobacter baumannii; details: strain AE5, 24 h 37 °C
[13] = test system: MDRAB clinical strain U95; assay type: cell-based, Acinetobacter baumannii; details: strain U95, 24 h 37 °C
Protocol: as §1

[14] = test system: MDRAB clinical strain AF12; assay type: cell-based, Acinetobacter baumannii; details: strain AF12, 24 h 37 °C
Protocol: as §1

[15] = test system: MDRAB clinical strain AZ93; assay type: cell-based, Acinetobacter baumannii; details: strain AZ93, 24 h 37 °C
Protocol: as §1

[16] = test system: MDRAB clinical strain AO80; assay type: cell-based, Acinetobacter baumannii; details: strain AO80, 24 h 37 °C
Protocol: as §1

[17] = test system: Acinetobacter baumannii 17,978; assay type: cell-based; details: 10 µL from wells without turbidity onto LB agar, 24 h at 37 °C, triplicate;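 note: CLSI broth microdilution in 96-well polypropylene plates, MBC taken as lowest concentration giving no growth when clear wells were subcultured on LB agar for 24 h at 37 °C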
[18] = test system: MDRAB clinical strain Y92; assay type: cell-based, Acinetobacter baumannii; details: strain Y92, 24 h 37 °C
[19] = test system: MDRAB clinical strain J49; assay type: cell-based, Acinetobacter baumannii; details: strain J49, 24 h 37 °C
[20] = test system: MDRAB clinical strain O59; assay type: cell-based, Acinetobacter baumannii; details: strain O59, 24 h 37 °C
MDRAB clinical strains = assay type: cell-based, Acinetobacter baumannii; details: range over MDRAB clinical strains (details in Supplementary Table 2); subculture on LB agar, 24 h 37 °C
Protocol: as §1

MDRAB clinical strain K2 = assay type: cell-based, Acinetobacter baumannii; details: strain K2, 24 h 37 °C
Protocol: as §1

[21] = test system: MDRAB clinical strain D29; assay type: cell-based, Acinetobacter baumannii; details: strain D29, 24 h 37 °C
[22] = test system: MDRAB clinical strain W11; assay type: cell-based, Acinetobacter baumannii; details: strain W11, 24 h 37 °C
Protocol: as §1

Substance: GLGSVFGRLARILGRVIPKV-NH2 [Pilosulin]
- MIC ([1]; broth microdilution, LB): 16 µg/mL
- MBC ([1]; subculture on LB agar): 16 µg/mL
- MIC ([2]; broth microdilution, LB): 8 µg/mL
- MBC ([2]; subculture on LB agar): 16 µg/mL
- MIC ([3]; broth microdilution, LB): 8 µg/mL
- MBC ([3]; subculture on LB agar): 8 µg/mL
- MIC ([4]; broth microdilution, LB): 8 µg/mL
- MBC ([4]; subculture on LB agar): 8 µg/mL
- MIC ([5]; broth microdilution, LB): 16 µg/mL
- MBC ([5]; subculture on LB agar): 16 µg/mL
- MIC ([6]; broth microdilution, LB): 8 µg/mL
- MBC ([6]; subculture on LB agar): 16 µg/mL
- MIC ([7]; broth microdilution, LB): 16 µg/mL
- MBC ([7]; subculture on LB agar): 16 µg/mL
- MIC ([8]; broth microdilution, LB): 16 µg/mL
- MBC ([8]; subculture on LB agar): 16 µg/mL
- MIC ([9]; broth microdilution, LB): 8 µg/mL
- MBC ([9]; subculture on LB agar): 8 µg/mL
- MIC ([10]; broth microdilution, LB): 16 µg/mL
- MBC ([10]; subculture on LB agar): 16 µg/mL
- MIC ([11]; broth microdilution, LB): 16 µg/mL
- MBC ([11]; subculture on LB agar): 16 µg/mL
- MIC ([12]; broth microdilution, LB): 8 µg/mL
- MBC ([12]; subculture on LB agar): 16 µg/mL
- MIC ([13]; broth microdilution, LB): 32 µg/mL
- MBC ([13]; subculture on LB agar): 32 µg/mL
- MIC ([14]; broth microdilution, LB): 8 µg/mL
- MBC ([14]; subculture on LB agar): 16 µg/mL
- MIC ([15]; broth microdilution, LB): 16 µg/mL
- MBC ([15]; subculture on LB agar): 16 µg/mL
- MIC ([16]; broth microdilution, LB): 16 µg/mL
- MBC ([16]; subculture on LB agar): 32 µg/mL
- MBC [17]: 32 µg/mL
- MIC ([18]; broth microdilution, LB): 8 µg/mL
- MBC ([18]; subculture on LB agar): 8 µg/mL
- MIC ([19]; broth microdilution, LB): 16 µg/mL
- MBC ([19]; subculture on LB agar): 16 µg/mL
- MIC ([20]; broth microdilution, LB): 16 µg/mL
- MBC ([20]; subculture on LB agar): 16 µg/mL
- MBC (MDRAB clinical strains): 8 to 32 µg/mL
- MIC (MDRAB clinical strain K2; broth microdilution, LB): 16 µg/mL
- MBC (MDRAB clinical strain K2; subculture on LB agar): 32 µg/mL
- MIC ([21]; broth microdilution, LB): 16 µg/mL
- MBC ([21]; subculture on LB agar): 32 µg/mL
- MIC ([22]; broth microdilution, LB): 16 µg/mL
- MBC ([22]; subculture on LB agar): 16 µg/mL

— publication PMC8016998, “Identification of potential therapeutic antimicrobial peptides against Acinetobacter baumannii in a mouse model of pneumonia” (Scientific Reports, 2021)
